Legend:
Type in all cases: in vivo
Echinochloa crus-galli [1] = assay: Pre-emergence herbicidal effect; details: scored visually after 3 weeks
Text: (§1) Seeds of monocotyledonous and dicotyledonous weed plants and crop plants are laid out in wood-fibre pots in sandy loam and covered with soil. The compounds according to the invention formulated in the form of wettable powders (WP) or as emulsion concentrates (EC) are then applied as aqueous suspension or emulsion at a water application rate of 600 to 800 I/ha (converted) with the addition of 0.2% wetting agent to the surface of the covering soil. After the treatment, the pots are placed in a greenhouse and kept under good growth conditions for the trial plants. The damage to the test plants is scored visually after a test period of 3 weeks by comparison with untreated controls (herbicidal activity in percent (%): 100% activity=the plants have died, 0% activity=like control plants).

Avena fatua [2] = assay: Pre-emergence herbicidal effect; details: scored visually after 3 weeks
Text: as §1

Setaria viridis [3] = assay: Pre-emergence herbicidal effect; details: scored visually after 3 weeks
Text: as §1

Lolium multiflorum [4] = assay: Pre-emergence herbicidal effect; details: scored visually after 3 weeks
Text: as §1

Alopecurus myosuroides [5] = assay: Pre-emergence herbicidal effect; details: scored visually after 3 weeks
Text: as §1

Echinochloa crus-galli [6] = assay: Post-emergence herbicidal effect; details: assessed visually after about 3 weeks
Procedure: (§2) Seeds of monocotyledonous and dicotyledonous weed and crop plants are laid out in sandy loam in wood-fibre pots, covered with soil and cultivated in a greenhouse under good growth conditions. 2 to 3 weeks after sowing, the test plants are treated at the one-leaf stage. The compounds according to the invention, formulated in the form of wettable powders (WP) or as emulsion concentrates (EC), are then sprayed as aqueous suspension or emulsion at a water application rate of 600 to 800 I/ha (converted) with the addition of 0.2% of wetting agent onto the green parts of the plants. After the test plants have been left to stand in the greenhouse under optimal growth conditions for about 3 weeks, the action of the preparations is assessed visually in comparison to untreated controls (herbicidal action in percent (%): 100% activity=the plants have died, 0% activity=like control plants).

Avena fatua [7] = assay: Post-emergence herbicidal effect; details: assessed visually after about 3 weeks
Procedure: as §2

Setaria viridis [8] = assay: Post-emergence herbicidal effect; details: assessed visually after about 3 weeks
Procedure: as §2

Lolium multiflorum [9] = assay: Post-emergence herbicidal effect; details: assessed visually after about 3 weeks
Procedure: as §2

Polygonum convolvulus = assay: Post-emergence herbicidal effect; details: 80 g a.i./ha, assessed visually after about 3 weeks
Procedure: as §2

Alopecurus myosuroides [10] = assay: Post-emergence herbicidal effect; details: assessed visually after about 3 weeks
Procedure: as §2

Amaranthus retroflexus = assay: Post-emergence herbicidal effect; details: assessed visually after about 3 weeks
Procedure: as §2

Cyperus esculentus = assay: Pre-emergence herbicidal effect; details: scored visually after 3 weeks
Text: as §1

| SMILES | Herbicidal effect against [%] ECHCG (Echinochloa crus-galli [1]; 80 g a.i./ha) | Herbicidal effect against [%] ECHCG (Echinochloa crus-galli [1]; 320 g a.i./ha) | Herbicidal effect against [%] AVEFA (Avena fatua [2]; 80 g a.i./ha) | Herbicidal effect against [%] AVEFA (Avena fatua [2]; 320 g a.i./ha) | Herbicidal effect against [%] SETVI (Setaria viridis [3]; 80 g a.i./ha) | Herbicidal effect against [%] SETVI (Setaria viridis [3]; 320 g a.i./ha) | Herbicidal effect against [%] LOLMU (Lolium multiflorum [4]; 80 g a.i./ha) | Herbicidal effect against [%] LOLMU (Lolium multiflorum [4]; 320 g a.i./ha) | Herbicidal effect against [%] ALOMY (Alopecurus myosuroides [5]; 80 g a.i./ha) | Herbicidal effect against [%] ALOMY (Alopecurus myosuroides [5]; 320 g a.i./ha) | Herbicidal effect against [%] ECHCG (Echinochloa crus-galli [6]; 20 g a.i./ha) | Herbicidal effect against [%] ECHCG (Echinochloa crus-galli [6]; 80 g a.i./ha) | Herbicidal effect against [%] AVEFA (Avena fatua [7]; 20 g a.i./ha) | Herbicidal effect against [%] AVEFA (Avena fatua [7]; 80 g a.i./ha) | Herbicidal effect against [%] SETVI (Setaria viridis [8]; 20 g a.i./ha) | Herbicidal effect against [%] SETVI (Setaria viridis [8]; 80 g a.i./ha) | Herbicidal effect against [%] LOLMU (Lolium multiflorum [9]; 20 g a.i./ha) | Herbicidal effect against [%] LOLMU (Lolium multiflorum [9]; 80 g a.i./ha) | Herbicidal effect against [%] ALOMY (Alopecurus myosuroides [10]; 20 g a.i./ha) | Herbicidal effect against [%] ALOMY (Alopecurus myosuroides [10]; 80 g a.i./ha) | further results |
| --- | --- | --- | --- | --- | --- | --- | --- | --- | --- | --- | --- | --- | --- | --- | --- | --- | --- | --- | --- | --- | --- |
| CC#Cc1cc(C)c(C2=C(OC(=O)OCC)C3(CCCC(OCCOC)C3)NC2=O)c(C)c1 (stereo not shown) [Example P15] | 100% | 100% | 100% | 100% | 100% | 100% | 100% | 100% | 100% | 100% | 100% | 100% | 100% | 100% | 100% | 100% | 100% | 100% | 100% | 100% | Herbicidal effect against [%] POLCO (Polygonum convolvulus): 80%; Herbicidal effect against [%] AMARE (Amaranthus retroflexus; 20 g a.i./ha): 80%; Herbicidal effect against [%] AMARE (Amaranthus retroflexus; 80 g a.i./ha): 80% |
| CC#Cc1cc(C)c(C2=C(OC(=O)OCC)C3(CCCC(OCC)C3)NC2=O)c(CC)c1 (stereo not shown) [Example P1] | 100% | 100% | 80% | 100% | 100% | 100% | 100% | 100% | 100% | 100% | – | – | – | – | – | 100% | – | – | – | – | Herbicidal effect against [%] CYPES (Cyperus esculentus; 80 g a.i./ha): 100%; Herbicidal effect against [%] CYPES (Cyperus esculentus; 320 g a.i./ha): 100% |
| CC#Cc1cc(C)c(C2=C(OC(=O)OCC)C3(CCCC(OCCOC)C3)NC2=O)c(CC)c1 (stereo not shown) [Example P13] | 100% | 100% | 100% | 100% | 100% | 100% | 100% | 100% | 100% | 100% | 100% | 100% | 100% | 100% | 100% | 100% | 100% | 100% | 100% | 100% | Herbicidal effect against [%] CYPES (Cyperus esculentus; 320 g a.i./ha): 90% |
| CC#Cc1cc(CC)c(C2=C(OC(=O)OCC)C3(CCCC(OCC)C3)NC2=O)c(CC)c1 (single isomer, unassigned) [Example P4] | 100% | 100% | 100% | 100% | 100% | 100% | 100% | 100% | 100% | 100% | 100% | 100% | – | 100% | 100% | 100% | 100% | 100% | – | 100% | Herbicidal effect against [%] AMARE (Amaranthus retroflexus; 80 g a.i./ha): 80% |
